From PubChem BioAssay AID1259411 (Chemical Carcinogenesis Research Information System (CCRIS), 2018)
Activity calls are given as the source filed them. How the calls were made is not given here.

System: rodent carcinogenicity bioassays, tumor incidence
Experiment: CCRIS carcinogenicity studies
Summary of the method: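 Archive of carcinogenicity, mutagenicity, tumor promotion and tumor inhibition results drawn from journals, NCI reports and other sources, expert-reviewed; covers 1985-2011 and is no longer updated.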

Measured: carcinogen call

Cc1ccccc1N
active: Species: MOUSE, Strain/Sex: B6C3F1/FEMALE, Route: ORAL, Dose: 0, 1000, 3000 PPM IN DIET FOR 103 WK, Dose: 0, 1000, 3000 PPM IN DIET FOR 103 WK, Tumor Site: Type of Lesion: LIVER: HEPATOCELLULAR CARCINOMA OR HEPATOCELLULAR ADENOMA active; positive | Species: MOUSE, Strain/Sex: B6C3F1/MALE, Route: ORAL, Dose: 0, 1000, 3000 PPM IN DIET FOR 102-103 WK, Dose: 0, 1000, 3000 PPM IN DIET FOR 102-103 WK, Tumor Site: Type of Lesion: BLOOD VESSELS: HEMANGIOMA OR HEMANGIOSARCOMA active; positive | Species: MOUSE, Strain/Sex: CD-1/MALE,FEMALE, Route: ORAL, Dose: 0, 16000, 32000 MG/KG FOR 3 MO, THEN 0, 8000, 16000 MG/KG FOR 15 MO, Dose: 0, 16000, 32000 MG/KG FOR 3 MO, THEN 0, 8000, 16000 MG/KG FOR 15 MO, Tumor Site: Type of Lesion: BLOOD VESSELS: HEMANGIOMA, HEMANGIOSARCOMA active; positive | Species: RAT, Strain/Sex: CD-1/MALE, Route: ORAL, Dose: 0, 8000, 16000 MG/KG FOR 3 MO, THEN 0, 4000, 8000 MG/KG FOR 15 MO, Dose: 0, 8000, 16000 MG/KG FOR 3 MO, THEN 0, 4000, 8000 MG/KG FOR 15 MO, Tumor Site: Type of Lesion: INTEGUMENTARY SYSTEM (SUBCUTANEOUS TISSUE): FIBROMA, FIBROSARCOMA active; positive | Species: RAT, Strain/Sex: F344/FEMALE, Route: ORAL, Dose: 0, 3000, 6000, PPM IN DIET FOR 104 WK (STUDY DURATION: 104 WK), Dose: 0, 3000, 6000, PPM IN DIET FOR 104 WK (STUDY DURATION: 104 WK), Tumor Site: Type of Lesion: SPLEEN OR PERITONEUM: SARCOMA active; positive | Species: RAT, Strain/Sex: F344/FEMALE, Route: ORAL, Dose: 0, 3000, 6000 PPM IN DIET FOR 104 WK, Dose: 0, 3000, 6000 PPM IN DIET FOR 104 WK, Tumor Site: Type of Lesion: SPLEEN: ANGIOSARCOMA, SARCOMA (NOS) OR ANGIOSARCOMA OR OSTEOSARCOMA, URINARY BLADDER: TRANSITIONAL CELL CARCINOMA, TRANS active; positive | Species: RAT, Strain/Sex: F344/MALE, Route: ORAL, Dose: 0, 3000, 6000 PPM IN DIET FOR 101-104 WK, Dose: 0, 3000, 6000 PPM IN DIET FOR 101-104 WK, Tumor Site: Type of Lesion: INTEGUMENTARY SYSTEM (SUBCUTANEOUS TISSUE): FIBROMA, SPLEEN: FIBROMA, ANGIOSARCOMA, MULTIPLE ORGANS OR TUNICA VAGINALIS:, Tumor Site: Type of Lesion: INTEGUMENTARY SYSTEM (SUBCUTANEOUS TISSUE): FIBROMA, SPLEEN: FIBROMA, ANGIOSARCOMA, MULTIPLE ORGANS OR TUNICA VAGINALIS: active; positive | Species: RAT, Strain/Sex: F344/MALE, Route: ORAL, Dose: 0, 3000, 6000 PPM IN DIET FOR 104 WK (STUDY DURATION: 104 WK), Dose: 0, 3000, 6000 PPM IN DIET FOR 104 WK (STUDY DURATION: 104 WK), Tumor Site: Type of Lesion: SPLEEN OR PERITONEUM: SARCOMA active; positive | Species: RAT, Strain/Sex: F344/MALE, Route: ORAL, Dose: 4.0 G/KG IN DIET FOR 72 WK (TOTAL DOSE 0.22 MOL/RAT), Tumor Site: Type of Lesion: SPLEEN: FIBROMA, INTEGUMENTARY SYSTEM (SKIN): FIBROMA, MAMMARY GLAND: FIBROADENOMA, ADENOCARCINOMA, PERITONEAL CAVITY: M, Tumor Site: Type of Lesion: SPLEEN: FIBROMA, INTEGUMENTARY SYSTEM (SKIN): FIBROMA, MAMMARY GLAND: FIBROADENOMA, ADENOCARCINOMA, PERITONEAL CAVITY: M active; positive

Cc1cccn2c1nc1ccc(N)nc12
active: Species: MOUSE, Strain/Sex: B6C3F1/MALE, Route: INTRAPERITONEAL, Dose: 0, 0.625 UMOL IN 35 µL DMSO ON D 1, 8, AND 15 AFTER BIRTH (STUDY DURATION: 8 MO), Tumor Site: Type of Lesion: LIVER: HEPATOCELLULAR ADENOMA active; positive | Species: MOUSE, Strain/Sex: B6C3F1/MALE, Route: INTRAPERITONEAL, Dose: 0, 0.625 UMOL IN 35 µL DMSO ON D 1, 8, AND 15 AFTER BIRTH (STUDY DURATION: 12 MO), Tumor Site: Type of Lesion: LIVER: HEPATOCELLULAR ADENOMA active; positive | Species: MOUSE, Strain/Sex: B6C3F1/MALE, Route: INTRAPERITONEAL, Dose: 0, 1.25 UMOL IN 35 µL DMSO ON D 1, 8, AND 15 AFTER BIRTH (STUDY DURATION: 8 MO), Tumor Site: Type of Lesion: LIVER: HEPATOCELLULAR ADENOMA active; positive | Species: MOUSE, Strain/Sex: B6C3F1/MALE, Route: INTRAPERITONEAL, Dose: 0, 1.25 UMOL IN 35 µL DMSO ON D 1, 8, AND 15 AFTER BIRTH (STUDY DURATION: 12 MO), Tumor Site: Type of Lesion: LIVER: HEPATOCELLULAR ADENOMA active; positive | Species: MOUSE, Strain/Sex: CDF1/FEMALE, Route: ORAL, Dose: 0, 0.05% IN DIET FOR UP TO 685 D (STUDY DURATION: 685 D), Tumor Site: Type of Lesion: LIVER: HEPATOCELLULAR ADENOMA OR CARCINOMA, BLOOD VESSELS: HEMANGIOENDOTHELIOMA OR HEMANGIOENDOTHELIAL SARCOMA active; positive | Species: MOUSE, Strain/Sex: CDF1/MALE, Route: ORAL, Dose: 0, 0.05% IN DIET FOR 12 MO (STUDY DURATION: 12 MO), Tumor Site: Type of Lesion: BROWN ADIPOSE TISSUE: HEMANGIOENDOTHELIAL SARCOMA, LIVER: HEPATOCELLULAR ADENOMA OR CARCINOMA, LUNG: PULMONARY ADENOMA O, Tumor Site: Type of Lesion: BROWN ADIPOSE TISSUE: HEMANGIOENDOTHELIAL SARCOMA, LIVER: HEPATOCELLULAR ADENOMA OR CARCINOMA, LUNG: PULMONARY ADENOMA O active; positive | Species: MOUSE, Strain/Sex: CDF1/MALE, Route: ORAL, Dose: 0, 0.05% IN DIET FOR UP TO 685 D (STUDY DURATION: 685 D), Tumor Site: Type of Lesion: BLOOD VESSELS: HEMANGIOENDOTHELIOMA OR HEMANGIOENDOTHELIAL SARCOMA active; positive | Species: RAT, Strain/Sex: F344/FEMALE, Route: ORAL, Dose: 0, 500 PPM IN DIET (AV DAILY DOSE: 4.3 MG) FOR 24 MO (STUDY DURATION: 104 WK), Tumor Site: Type of Lesion: LIVER: HEPATOCELLULAR CARCINOMA OR ANAPLASTIC HEPATOMA, SMALL INTESTINE: ADENOMA OR ADENOCARCINOMA OR MUCINOUS CARCINOMA active; positive | Species: RAT, Strain/Sex: F344/MALE, Route: ORAL, Dose: 0, 500 PPM IN DIET (AV DAILY DOSE: 7.4 MG) FOR 24 MO (STUDY DURATION: 104 WK), Tumor Site: Type of Lesion: LIVER: HEPATOCELLULAR CARCINOMA OR ANAPLASTIC HEPATOMA, SMALL INTESTINE: ADENOMA OR ADENOCARCINOMA OR MUCINOUS CARCINOMA active; positive

C=CCc1ccc2c(c1)OCO2
active: Species: MOUSE, Strain/Sex: B6AKF1/MALE,FEMALE, Route: GAVAGE, ORAL, Dose: 464 MG/KG FROM D 7-28 OF LIFE THEN 1112 MG/KG IN DIET, Tumor Site: Type of Lesion: LIVER: HEPATOCELLULAR TUMOR active; positive | Species: MOUSE, Strain/Sex: B6C3F1/MALE,FEMALE, Route: GAVAGE, ORAL, Dose: 464 MG/KG FROM D 7-28 OF LIFE THEN 1112 MG/KG IN DIET, Tumor Site: Type of Lesion: LIVER: HEPATOCELLULAR TUMOR active; positive | Species: MOUSE, Strain/Sex: BALB/MALE, Route: ORAL, Dose: 0, 4000 PPM IN DIET FOR 52 WK (STUDY DURATION: 75 WK), Tumor Site: Type of Lesion: LIVER: HEPATOCELLULAR CARCINOMA, HEPATOCELLULAR ADENOMA active; positive | Species: MOUSE, Strain/Sex: CD-1/MALE, Route: ORAL, Dose: 4000, 5000 MG/KG IN DIET FOR 13 MO, Tumor Site: Type of Lesion: LIVER: HEPATOCELLULAR CARCINOMA active; positive | Species: MOUSE, Strain/Sex: CD-1/MALE, Route: SUBCUTANEOUS, Dose: 0.66, 6.6 MG (TOTAL DOSES) IN TRICAPRYLIN IN 3 WK, Tumor Site: Type of Lesion: LIVER active; positive | Species: MOUSE, Strain/Sex: SWISS/FEMALE, Route: SUBCUTANEOUS, Dose: 0.66, 6.6 MG (TOTAL DOSES) IN TRICAPRYLIN IN 3 WK, Tumor Site: Type of Lesion: LUNG: ADENOMA, ADENOCARCINOMA active; positive | Species: MOUSE, Strain/Sex: SWISS/MALE, Route: SUBCUTANEOUS, Dose: 0.66, 6.6 MG (TOTAL DOSES) IN TRICAPRYLIN IN 3 WK, Tumor Site: Type of Lesion: LIVER: HEPATOMA active; positive | Species: RAT, Strain/Sex: OSBORNE-MENDEL/MALE,FEMALE, Route: ORAL, Dose: 100, 500, 1000, 5000 MG/KG IN DIET FOR 2 YR, Dose: 100, 500, 1000, 5000 MG/KG IN DIET FOR 2 YR, Tumor Site: Type of Lesion: LIVER: HEPATOCELLULAR CARCINOMA, CHOLANGIOCARCINOMA active; positive
